Results as given in patent US10239851B2 (priority 2014, dated 2019).
Where two headings read alike, the source gives them in different places. Marks after values point to notes of the source that are not given here.

Assays:
mice [1] = conditions: intravenous, equimolar amounts to propofol
[2] = In vitro dissociation of the water soluble taxane derivatives in blood plasma of rat; type: in vitro ADME, SD rats; conditions: 37° C.
Description: The obtained water soluble taxane derivatives were formulated as 0.2 mg/ml aqueous solutions. […] After 2 min, 5 min and 10 min of incubation, 0.2 ml of solutions were respectively taken from each of the samples, and added to acetonitrile (0.4 ml) cooled to −20° C. for precipitation of protein.

[3] = In vitro dissociation of the water soluble taxane derivatives in blood plasma of rabbit; type: in vitro ADME, New Zealand white rabbits; conditions: 37° C.
Description: The obtained water soluble taxane derivatives were formulated as 0.2 mg/ml aqueous solutions. […] After 5 min, 20 min and 60 min of incubation, 0.2 ml of solutions were respectively taken from each of the samples, and added to acetonitrile (0.4 ml) cooled to −20° C. for precipitation of protein.

[4] = rats, 5 mg/kg intravenous, 5 min after administration
Description: After 5 min of administration, 0.3 ml of venous blood was taken from the retrobulbar venous plexus of the rats, placed in heparinized tubes, and centrifuged at 11,000 rpm for 5 min. Blood plasma was separated, and the concentrations of the compounds in the blood plasma were determined by liquid chromatography-mass spectrometry.

SD rats = assay: ED50 and LD50 test concerning anesthesia (sequential method) in rats; type: in vivo; conditions: for ED50: Rattus norvegicus; for ED50 / Rat ED50: anesthesia (loss of righting reflex); for ED50 / Rat LD50 / Rat ED50: caudal vein injection
Description: (§1) Test samples for the experiment on rabbit were formulated to have corresponding concentrations based on the results from a preliminary test. […] Rats and mice were administered with samples having a fixed concentration of drugs, while the volume of administration altered according to actual situation. The volume of administration to rabbits was 1 mL/kg body weight.
(§2) ED50 and LD50 values concerning anesthesia were determined using a sequential method. Healthy KM mice (male), SD rats (male) and New Zealand White rabbits were used for test. […] For rabbits, the compounds were administered by injection at a constant rate via ear vein for 30 seconds. Before the test, a preliminary test was conducted to determine an approximate dosage (volume of administration) that leads to anesthetization (or death) of animals, which was set as the middle dosage in the formal test. […] The disappearance of righting reflex or death was used as indicators of pharmacological efficacy or toxicity, respectively. The formal test began with the administration of the middle dosage. If animals were anesthetized, a lower dosage was administered; if animals were not anesthetized, a higher dosage was administered, until the cycle was repeated for 3-4 times. LD50 and ED50 were calculated by a sequential method aot425 software. TI was calculated according to the following equation: TI=LD50/ED50.

Kunming mice = assay: Latent period and persistent period of anesthesia in mice; type: in vivo
KM mice = assay: ED50 and LD50 test concerning anesthesia (sequential method) in mice; type: in vivo; conditions: for ED50: Mus musculus; for ED50 / Mouse ED50: anesthesia (loss of righting reflex); for ED50 / Mouse LD50 / Mouse ED50: caudal vein injection
Description: as §1, §2

mice [5] = conditions: cited from earlier work
[6] = rats, 5 mg/kg intravenous, 5 min after administration; remark: listed apart in the source
Description: After 5 min of administration, 0.3 ml of venous blood was taken from the retrobulbar venous plexus of the rats, placed in heparinized tubes, and centrifuged at 11,000 rpm for 5 min. Plasma was separated, and the concentrations of the compounds in the plasma were determined by liquid chromatography □-mass spectrometry.

[7] = system: New Zealand White rabbits; assay: ED50 and LD50 test concerning anesthesia (sequential method) in rabbits; type: in vivo; conditions: for LD50 / ED50: injection via ear vein; for LD50: death; for ED50: disappearance of righting reflex
Description: as §1, §2

[8] = rat plasma, 37° C.
Description: (§3) 0.1 ml samples were taken from each of the solutions, added respectively to 1 ml of blood plasma of rabbit (taken from New Zealand white rabbits, treated according to conventional methods, anticoagulated with heparin) or 1 ml of blood plasma of rat (taken from live SD rats, treated according to conventional methods, anticoagulated with heparin), homogeneously mixed, and placed in a thermostatic water bath at 37° C. for incubation with time being recorded. Samples were taken at different time points after the experiment began, and 2 ml of acetonitrile was immediately added. The samples were shaken and centrifuged for 5 min (15,000 rpm), and the supernatant was then taken for HPLC analysis.

[9] = rabbit plasma, 37° C.
Description: as §3

[10] = intravenous injection, dosage 2 * ED50, 3 mg/ml solution
[11] = propofol 25 mg/kg (2 * ED50), results from the present lab
[12] = 3 mg/ml solution, confirmation test
[13] = 6 mg/ml solution, confirmation test
[14] = dosage 1.25 * ED50 (propofol 15 mg/kg, fospropofol 85 mg/kg)
[15] = fospropofol 136 mg/kg (2 * ED50)
[16] = intravenous injection, dosage 2 * ED50, 6 mg/ml solution
[17] = formula G derivatives, sampling time 15 s

SMILES: CC(C)c1cccc(C(C)C)c1OC(=O)CCCN(C)C.Cl [J′-1, reference compound]
- latent period for anesthesia compared to propofol (mice [1]): much longer than those of propofol
- neurotoxic response after waking up (mice [1]): transient hemiplegia after waking up
- persistent period for anesthesia compared to propofol (mice [1]): much longer than those of propofol

SMILES: CC(=O)O[C@H]1C(=O)[C@@]2(C)[C@H]([C@H](OC(=O)c3ccccc3)[C@]3(O)C[C@H](OC(=O)[C@H](OC(=O)C(F)CCN(C)C)[C@@H](NC(=O)c4ccccc4)c4ccccc4)C(C)=C1C3(C)C)[C@]1(OC(C)=O)CO[C@@H]1C[C@@H]2O.Cl (stereo partly drawn) [Compound 03, 2′-O-[4-(N,N-dimethyl)amino-2(R,S)-fluorobutyryl]paclitaxel Hydrochloride]
- dissociation percent ([2]; 2 min): 61.8%
- dissociation percent ([2]; 5 min): 93.1%
- dissociation percent ([2]; 10 min): 100%
- dissociation percent ([3]; 5 min): 75.7%
- dissociation percent ([3]; 20 min): 93.5%
- dissociation percent ([3]; 60 min): 100%
- detection of the administered derivative in the blood plasma [4]: cannot be detected

SMILES: CC(C)c1cccc(C(C)C)c1O [Propofol, reference compound]
- TI Rat (SD rats; 3 mg/ml solution): 5.5
- TI Rat (SD rats; 6 mg/ml solution): 4.9
- ED50 (SD rats; 3 mg/ml solution): 3.91 mg/kg
- ED50 (SD rats; 6 mg/ml solution): 3.5 mg/kg
- Rat LD50 (SD rats; 3 mg/ml solution): 21.5 mg/kg
- Rat LD50 (SD rats; 6 mg/ml solution): 17.4 mg/kg
- Latent Period (Kunming mice; [10]): 8.4 ± 1.1 s
- Persistent period (Kunming mice; [10]): 324.8 ± 98.9 s
- Latent Period (Kunming mice; [11]): 8.4 ± 1.1 s
- Persistent period (Kunming mice; [11]): 324.8 ± 98.9 s
- TI Mouse (KM mice; [12]): 4.9
- TI Mouse (KM mice; [13]): 3.8
- ED50 (KM mice; [12]): 7.9 mg/kg
- ED50 (KM mice; [13]): 11.3 mg/kg
- Mouse LD50 (KM mice; [12]): 38.4 mg/kg
- Mouse LD50 (KM mice; [13]): 42.9 mg/kg
- Latent Period (mice [5]; [14]): 10.7 s

SMILES: CC(C)c1cccc(C(C)C)c1OC(=O)[C@H](F)CCN(C)C.Cl [J′]
- latent period for anesthesia compared to propofol (mice [1]): almost equal to those of propofol
- neurotoxic response after waking up (mice [1]): no neurotoxic response was observed
- persistent period for anesthesia compared to propofol (mice [1]): almost equal to those of propofol

SMILES: CC(=O)O[C@@]12CO[C@@H]1C[C@H](O)[C@@]1(C)C(=O)[C@H](O)C3=C(C)[C@@H](OC(=O)[C@H](OC(=O)[C@@H](F)CCN(C)C)[C@@H](NC(=O)OC(C)(C)C)c4ccccc4)C[C@@](O)([C@@H](OC(=O)c4ccccc4)[C@H]21)C3(C)C.Cl [Compound 05, 2′-O-[4-(N,N-dimethyl)amino-2(S)-fluorobutyryl]docetaxel hydrochloride]
- dissociation percent ([2]; 2 min): 56.4%
- dissociation percent ([2]; 5 min): 91.1%
- dissociation percent ([2]; 10 min): 100%
- detection of the administered derivative in the blood plasma [6]: cannot be detected
- dissociation percent ([3]; 5 min): 79.3%
- dissociation percent ([3]; 20 min): 91.8%
- dissociation percent ([3]; 60 min): 100%

SMILES: CC(=O)O[C@@]12CO[C@@H]1C[C@H](O)[C@@]1(C)C(=O)[C@H](O)C3=C(C)[C@@H](OC(=O)[C@H](OC(=O)C(F)CCN(C)C)[C@@H](NC(=O)OC(C)(C)C)c4ccccc4)C[C@@](O)([C@@H](OC(=O)c4ccccc4)[C@H]21)C3(C)C.Cl (stereo partly drawn) [Compound 06, 2′-O-[4-(N,N-dimethyl)amino-2(R,S)-fluorobutyryl]docetaxel hydrochloride]
- dissociation percent ([2]; 2 min): 56.4%
- dissociation percent ([2]; 5 min): 91.1%
- dissociation percent ([2]; 10 min): 100%
- detection of the administered derivative in the blood plasma [6]: cannot be detected
- dissociation percent ([3]; 5 min): 75.6%
- dissociation percent ([3]; 20 min): 98.6%
- dissociation percent ([3]; 60 min): 100%

SMILES: CC(C)c1cccc(C(C)C)c1OCOP(=O)(O)O [Fospropofol]
- Latent Period (mice [5]; [14]): 105 s
- Latent Period (mice [5]; [15]): 81 s
- Persistent period (mice [5]; [15]): 804 s

SMILES: CC(=O)OC12COC1CC(O)C1(C)C(=O)C(O)C3=C(C)C(OC(=O)C(OC(=O)C(F)CCN(C)C)C(NC(=O)OC(C)(C)C)c4ccccc4)CC(O)(C(OC(=O)c4ccccc4)C21)C3(C)C.Cl [Compound 04, 2′-O-[4-(N,N-dimethyl)amino-2(R)-fluorobutyryl]docetaxel Hydrochloride]
- dissociation percent ([2]; 2 min): 58.6%
- dissociation percent ([2]; 5 min): 92.6%
- dissociation percent ([2]; 10 min): 100%
- detection of the administered derivative in the blood plasma [6]: cannot be detected
- dissociation percent ([3]; 5 min): 80.2%
- dissociation percent ([3]; 20 min): 93.5%
- dissociation percent ([3]; 60 min): 100%

SMILES: CC(C)c1cccc(C(C)C)c1OC(=O)[C@@H](F)CCOP(=O)([O-])[O-].[Na+].[Na+] [Compound G2, {1-[4-(2,6-diisopropylphenoxy)-4-oxo-3-(S)-3-fluoro-1-butyl]} phosphate monoester disodium salt]
- TI Rat (SD rats; 3 mg/ml solution): 3.3
- TI Rat (SD rats; 6 mg/ml solution): 2.8
- Rat ED50 (SD rats; 6 mg/ml solution): 21.1 mg/kg
- Latent Period (Kunming mice; [10]): 16.3 ± 0.8 s
- Persistent period (Kunming mice; [10]): 383.6 ± 242.1 s
- Latent Period (Kunming mice; [16]): 15.7 ± 2.3 s
- Persistent period (Kunming mice; [16]): 571 ± 173 s
- TI Mouse (KM mice; [12]): 3.0
- TI Mouse (KM mice; 3 mg/ml solution, first test): 2.8*
- TI Mouse (KM mice; [13]): 2.3
- TI Mouse (KM mice; 6 mg/ml solution, first test): 1.9*
- Mouse ED50 (KM mice; [12]): 19.8 mg/kg
- Mouse ED50 (KM mice; 3 mg/ml solution, first test): 23.7 mg/kg
- Mouse ED50 (KM mice; [13]): 22.8 mg/kg
- Mouse ED50 (KM mice; 6 mg/ml solution, first test): 25.6 mg/kg
- Mouse LD50 (KM mice; [12]): 60.4 mg/kg
- Mouse LD50 (KM mice; 3 mg/ml solution, first test): 65.7 mg/kg
- Mouse LD50 (KM mice; 6 mg/ml solution, first test): 48.7 mg/kg
- LD50 [7]: 38.7 (35.1-41.3) mg/kg
- ED50 [7]: 14.7 (12.6-19.1) mg/kg
- Sampling time/dissociation percent (%) 5 S ([8]; formula G derivatives, sampling time 5 s): 48.5%
- Sampling time/dissociation percent (%) 15 S [8, 17]: 69.7%
- Sampling time/dissociation percent (%) 15 S [9, 17]: 37.2%
- Sampling time/dissociation percent (%) 30 S ([9]; formula G derivatives, sampling time 30 s): 54.3%

SMILES: CC(=O)O[C@H]1C(=O)[C@@]2(C)[C@H]([C@H](OC(=O)c3ccccc3)[C@]3(O)C[C@H](OC(=O)[C@H](OC(=O)[C@H](F)CCN(C)C)[C@@H](NC(=O)c4ccccc4)c4ccccc4)C(C)=C1C3(C)C)[C@]1(OC(C)=O)CO[C@@H]1C[C@@H]2O.Cl [Compound 01, 2′-O-[4-(N,N-dimethyl)amino-2(R)-fluorobutyryl]paclitaxel Hydrochloride]
- dissociation percent ([2]; 2 min): 63.5%
- dissociation percent ([2]; 5 min): 96.8%
- dissociation percent ([2]; 10 min): 100%
- dissociation percent ([3]; 5 min): 76.5%
- dissociation percent ([3]; 20 min): 98.3%
- dissociation percent ([3]; 60 min): 100%
- detection of the administered derivative in the blood plasma [4]: cannot be detected
- mean concentration of paclitaxel in the blood plasma [4]: 1789 ng/mL

SMILES: CC(C)c1cccc(C(C)C)c1OC(=O)[C@H](F)CCN(C)C.Cl [Compound E2, Propofol 4-(N,N-dimethyl)amino-2(R)-fluorobutyrate Hydrochloride]
- TI Rat (SD rats; 3 mg/ml solution): 3.8
- TI Rat (SD rats; 6 mg/ml solution): 3.1
- Rat ED50 (SD rats; 3 mg/ml solution): 9.8 mg/kg
- Rat ED50 (SD rats; 6 mg/ml solution): 10.1 mg/kg
- Rat LD50 (SD rats; 3 mg/ml solution): 37.5 mg/kg
- Rat LD50 (SD rats; 6 mg/ml solution): 30.7 mg/kg
- Latent Period (Kunming mice; [10]): 14.6 ± 0.9 s
- Persistent period (Kunming mice; [10]): 383.6 ± 242.1 s
- Latent Period (Kunming mice; [16]): 14.2 ± 1.9 s
- Persistent period (Kunming mice; [16]): 543 ± 231 s
- TI Mouse (KM mice; [12]): 3^
- TI Mouse (KM mice; 3 mg/ml solution, first test): 4*
- TI Mouse (KM mice; [13]): 3.7
- TI Mouse (KM mice; 6 mg/ml solution, first test): 3.6*
- Mouse ED50 (KM mice; [12]): 15.4 mg/kg
- Mouse ED50 (KM mice; 3 mg/ml solution, first test): 17.9 mg/kg
- Mouse ED50 (KM mice; [13]): 13.0 mg/kg
- Mouse ED50 (KM mice; 6 mg/ml solution, first test): 15.2 mg/kg
- Mouse LD50 (KM mice; [12]): 46.9 mg/kg
- Mouse LD50 (KM mice; 3 mg/ml solution, first test): 71.8 mg/kg
- Mouse LD50 (KM mice; [13]): 48.0 mg/kg
- Mouse LD50 (KM mice; 6 mg/ml solution, first test): 55.1 mg/kg
- TI index ([7]; TI=LD50/ED50): 3.5
- LD50 [7]: 28 (23.0-34.2) mg/kg
- ED50 [7]: 8 (5.7-10.5) mg/kg
- dissociation percent ([8]; 5 s): 100%
- dissociation percent ([9]; 15 s): 97.7%
- dissociation percent ([9]; 30 s): 100%

SMILES: CC(=O)O[C@H]1C(=O)[C@@]2(C)[C@H]([C@H](OC(=O)c3ccccc3)[C@]3(O)C[C@H](OC(=O)[C@H](OC(=O)[C@@H](F)CCN(C)C)[C@@H](NC(=O)c4ccccc4)c4ccccc4)C(C)=C1C3(C)C)[C@]1(OC(C)=O)CO[C@@H]1C[C@@H]2O.Cl [Compound 02, 2′-O-[4-(N,N-dimethyl)amino-2(S)-fluorobutyryl]paclitaxel hydrochloride]
- dissociation percent ([2]; 2 min): 59.8%
- dissociation percent ([2]; 5 min): 95.6%
- dissociation percent ([2]; 10 min): 100%
- dissociation percent ([3]; 5 min): 68.2%
- dissociation percent ([3]; 20 min): 97.5%
- dissociation percent ([3]; 60 min): 100%
- detection of the administered derivative in the blood plasma [4]: cannot be detected
